Legend:
HRV-2 = experiment: Real-time qRT-PCR of HRV-2 RNA replication in MRC5 cells; format: cell-based, human rhinovirus; settings: MRC5, 2 days after infection; 100 μg/mL PA, 20 μg/mL PGG; vs untreated cultures
Protocol: (§1) To evaluate the level of gene expression, real-time qRT-PCR with SYBR Green dye was carried out. HRV-2 or HRV-4 infected and noninfected cultures of MRC5 monolayers grown in 25 cm^2 cell culture flasks (Corning, NY) were treated with 100 μg/mL PA or 20 μg/mL PGG. After incubation at 37°C and 5% CO2 for 2 days, total RNA was extracted from the culture cells using the RNeasy Plus Mini Kit (Qiagen, Hilden, Germany) according to the manufacturer’s instructions. Contaminated genomic DNA was removed using RQ1 RNase-free DNase (Promega, Madison, WI). Complementary DNA (cDNA) was synthesized using 1 μg total RNA through a reverse transcription reaction using the SuperScript First-Strand Synthesis Kit (Invitrogen, Carlsbad, CA). […] The PCR conditions were as follows: 50°C for 2 min, 95°C for 10 min, and then 50 cycles of 95°C for 15 s and either 60°C [β2-microglobulin (B2M), interleukin (IL)-6, IL-8, LDLR, ICAM-1, HRV-2, and HRV-4] or 58°C (B2M and IL-1β) or 55°C [B2M, Toll-like receptor 3 (TLR3), tumor necrosis factor (TNF), and interferon beta (IFNβ)] for 30 s. mRNA expression level of target gene was normalized to mRNA expression level for the housekeeping gene B2M and analyzed by the 2^–ΔΔCT method using StepOne Software v2.1 and DataAssist Software (Applied Biosystems). […]

HRV-4 = experiment: Real-time qRT-PCR of HRV-4 RNA replication in MRC5 cells; format: cell-based, human rhinovirus; settings: MRC5, 2 days after infection; 100 μg/mL PA, 20 μg/mL PGG; vs untreated cultures
Protocol: as §1

ICAM-1 = ICAM-1 mRNA expression, qRT-PCR in MRC5; format: cell-based, human; settings: MRC5, 2 days after HRV-2 or HRV-4 infection; 100 μg/mL PA, 20 μg/mL PGG
Protocol: as §1, with “WI).” for “WI). Complementary DNA (cDNA) was synthesized using 1 μg total RNA through a reverse transcription reaction using the SuperScript First-Strand Synthesis Kit (Invitrogen, Carlsbad, CA).”
The expressions of ICAM-1 and LDLR were examined using real-time qRT-PCR and Western blot. […] The concentrations of ICAM-1 in the test samples were determined from OD values using standard curve of each assay.

sICAM-1 = experiment: Soluble ICAM-1 ELISA in MRC5 culture supernatants; format: cell-based, human; settings: HRV-2 or HRV-4 infected MRC5 cultures, 100 μg/mL PA, 20 μg/mL PGG
Protocol: The expressions of ICAM-1 and LDLR were examined using real-time qRT-PCR and Western blot. Furthermore, concentrations of soluble ICAM-1 (sICAM-1) in cell-free culture supernatants 2 days after treatment were measured using a sICAM-1 ELISA Kit (Pierce Biotechnology, Rockford, IL) according to the manufacturer’s instructions. The sensitivities of the assays were 0.3 ng/mL. The concentrations of ICAM-1 in the test samples were determined from OD values using standard curve of each assay.

mICAM-1 = experiment: Western blot of mICAM-1 in MRC5 cells; format: cell-based, human; settings: MRC5, 2 days, HRV-2 or HRV-4, 100 μg/mL PA, 20 μg/mL PGG
Protocol: Cell lysates from infected and noninfected MRC5 cultures 2 days after incubation with or without test compounds were obtained in RIPA buffer and 1% mammalian cell protease inhibitor cocktail according to the manufacturer’s instructions. Working dilutions of primary antibodies were dilulted 500, 2000, and 1000 times for anti-ICAM-1, anti-LDLR, and anti-actin antibodies, respectively. Working dilutions of secondary antibody was 1000, 1000, and 800 for anti-ICAM-1, anti-LDLR, and anti-actin, respectively. Ten micrograms of cell lysates from different treatments were mixed with an equal volume of 5× Laemmli sample buffer, boiled in 10 min, and resolved by electrophoresis in 11% sodium dodecyl sulfate-polyacrylamide gels (SDS-PAGE). […] Differences in protein expressions were quantified using a Molecular Imager Gel Doc XR system (Bio-Rad, Hercules, CA) and normalized to actin expression on the same membrane.
The expressions of ICAM-1 and LDLR were examined using real-time qRT-PCR and Western blot. Furthermore, concentrations of soluble ICAM-1 (sICAM-1) in cell-free culture supernatants 2 days after treatment were measured using a sICAM-1 ELISA Kit (Pierce Biotechnology, Rockford, IL) according to the manufacturer’s instructions. […] The concentrations of ICAM-1 in the test samples were determined from OD values using standard curve of each assay.

IL-6 = IL-6 ELISA in MRC5 supernatants; format: cell-based, human; settings: for IL-6 concentrations in infected cultures: HRV-2 or HRV-4 infected MRC5 supernatants, 2 days, 100 μg/mL PA, 20 μg/mL PGG
Protocol: The concentrations of IL-6, IL-8, and TNF in cell-free culture supernatants 2 days after treatment were measured using specific ELISA. OptEIA IL-6, IL-8, and TNF ELISA kits (BD Biosciences, San Diego, CA) were used for the assays. The sensitivities of these ELISA assays were 2.2, 0.8, and 2.0 pg/mL, respectively. The concentrations of IL-6, IL-8, and TNF in the test samples were determined from OD values using standard curve of each assay.

SMILES	reduction of HRV-2 RNA replication level (HRV-2) [fold]	reduction of HRV-4 RNA replication level (HRV-4) [fold]	effect on HRV-induced ICAM-1 mRNA expression (ICAM-1)	sICAM-1 levels in supernatants vs cultures without treatment (sICAM-1)	mICAM-1 protein levels vs cultures without treatment (mICAM-1)	IL-6 concentrations in infected cultures (IL-6)	IL-6 concentrations in mock cultures vs mock cultures without treatment (IL-6; noninfected MRC5 supernatants)
COc1ccc(C(C)=O)c(O)c1 [PA, paeonol]	30.1	16.3	reduced	significantly lower	similar	reduced	higher
O=C(OC[C@H]1O[C@@H](OC(=O)c2cc(O)c(O)c(O)c2)[C@H](OC(=O)c2cc(O)c(O)c(O)c2)[C@@H](OC(=O)c2cc(O)c(O)c(O)c2)[C@@H]1OC(=O)c1cc(O)c(O)c(O)c1)c1cc(O)c(O)c(O)c1 [PGG, 1,2,3,4,6-penta-O-galloyl-β-D-glucopyranose]	14.3	15.1	reduced	significantly lower	similar	reduced	

— PMC4393083, “Antiviral Activity and Possible Mechanism of Action of Constituents Identified in Paeonia lactiflora Root toward Human Rhinoviruses” (PLoS ONE, 2015)
